Data reported in patent publication US11000033B2, “Ketone or oxime compound, and herbicide” (NISSAN CHEMICAL CORPORATION, priority 2014, dated 2021).

Tests used:
Type in all cases: in vivo
Setaria viridis [1] = assay: Test Example 4: herbicidal effect by soil treatment (symbol G); conditions: application herbicide amount 320 g/ha
Summary of the method: (§1)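 Seeds were sown in sterilized diluvial soil, covered with about 1.5 cm of soil, and the soil surface was sprayed with a water-diluted emulsion of the compound at a predetermined rate. Plants grew in a greenhouse at 25° C. to 30° C.; effects were scored visually 3 weeks after application.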

Setaria viridis [2] = assay: Test Example 5: herbicidal effect by foliage application, plastic box (symbol G); conditions: 320 g/ha, 3 weeks after application
Summary of the method: (§2)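 Greenhouse foliar test: seedlings at 14 days, grown 25° C. to 30° C. in sterilized diluvial soil; compound applied as an aqueous dilution of an emulsion; response read 3 weeks after spraying.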

[3] = tested on: Echinochloa oryzacola Vasing.; assay: Test Example 1: herbicidal activity, application before weed generation in submerged conditions (symbol A); conditions: application herbicide amount 320 g/ha
Summary of the method: (§3)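 Greenhouse growth at 25–30 °C lasted 3 weeks after treatment, when each weed was graded 0–5 by herbicidal ratio. Treatment was a diluted emulsion applied to the water surface of 4 cm-submerged alluvial soil on the sowing day.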

[4] = tested on: Echinochloa crus-galli var. crus-galli; assay: Test Example 5: herbicidal effect by foliage application, plastic box (symbol H); conditions: 320 g/ha, 3 weeks after application
Summary of the method: as §2

Alopecurus myosuroides = assay: Test Example 5: herbicidal effect by foliage application, plastic box (symbol J); conditions: 320 g/ha, 3 weeks after application
Summary of the method: as §2

Scirpus juncoides = assay: Test Example 1: herbicidal activity, application before weed generation in submerged conditions (symbol B); conditions: application herbicide amount 320 g/ha
Summary of the method: as §3

Amaranthus retroflexus = assay: Test Example 4: herbicidal effect by soil treatment (symbol N); conditions: application herbicide amount 320 g/ha
Summary of the method: as §1

Veronica persica = assay: Test Example 4: herbicidal effect by soil treatment (symbol R); conditions: application herbicide amount 320 g/ha
Summary of the method: as §1

Chenopodium album = assay: Test Example 4: herbicidal effect by soil treatment (symbol O); conditions: application herbicide amount 320 g/ha
Summary of the method: as §1

| Structure (SMILES) | G (Setaria viridis) herbicidal effect grade (Setaria viridis [1]) | G: Setaria viridis, herbicidal effect grade (Setaria viridis [2]) | Herbicidal effect grade, A: Echinochloa oryzacola Vasing. [3] | H: Echinochloa crus-galli var. crus-galli, herbicidal effect grade [4] | J: Alopecurus myosuroides, herbicidal effect grade (Alopecurus myosuroides) | Herbicidal effect grade, B: Scirpus juncoides (Scirpus juncoides) | N (Amaranthus retroflexus) herbicidal effect grade (Amaranthus retroflexus) | Herbicidal effect grade, R: Veronica persica (Veronica persica) | Herbicidal effect grade, O: Chenopodium album (Chenopodium album) | Herbicidal effect grade, G: Setaria viridis (Setaria viridis [1]) | Herbicidal effect grade, N: Amaranthus retroflexus (Amaranthus retroflexus) | R: Veronica persica, herbicidal effect grade (Veronica persica) | G: Setaria viridis, herbicidal effect grade (Setaria viridis [1]) | G: Setaria viridis, herbicidal effect (criteria of Test Example 1) (Setaria viridis [2]) | H: Echinochloa crus-galli var. crus-galli, herbicidal effect (criteria of Test Example 1) [4] | J: Alopecurus myosuroides, herbicidal effect (criteria of Test Example 1) (Alopecurus myosuroides) | N: Amaranthus retroflexus, herbicidal effect grade (Amaranthus retroflexus) |
| --- | --- | --- | --- | --- | --- | --- | --- | --- | --- | --- | --- | --- | --- | --- | --- | --- | --- |
| CON=C(C)CC1CC(OC(=O)C(C)(C)CCl)=C(c2c(C)cc(C)cc2C)C1=O (stereo not drawn) [1-016] | 3 (Herbicidal ratio of 40% or higher and lower than 70%) | 5 (Herbicidal ratio of 90% or more (almost completely withered)) | 5 (Herbicidal ratio of 90% or more (almost completely withered)) | 5 (Herbicidal ratio of 90% or more (almost completely withered)) | 5 (Herbicidal ratio of 90% or more (almost completely withered)) | 5 (Herbicidal ratio of 90% or more (almost completely withered)) | 5 (Herbicidal ratio of 90% or more (almost completely withered)) |  |  |  |  |  |  |  |  |  |  |
| CC(=O)C1CC(O)=C(c2c(C)cc(C)cc2C)C1=O (stereo not drawn) [8-001] |  | 1 (Herbicidal ratio of 5% or higher and lower than 20%) | 0 (Herbicidal ratio of 5% or lower (almost no effect)) | 1 (Herbicidal ratio of 5% or higher and lower than 20%) | 0 (Herbicidal ratio of 5% or lower (almost no effect)) | 0 (Herbicidal ratio of 5% or lower (almost no effect)) |  | 0 (Herbicidal ratio of 5% or lower (almost no effect)) | 0 (Herbicidal ratio of 5% or lower (almost no effect)) | 0 (Herbicidal ratio of 5% or lower (almost no effect)) | 0 (Herbicidal ratio of 5% or lower (almost no effect)) |  |  |  |  |  |  |
| CON=C(C)C(=O)C1CC(O)=C(c2c(C)cc(C)cc2C)C1=O (stereo not drawn) [8-002] |  | 0 (Herbicidal ratio of 5% or lower (almost no effect)) | 0 (Herbicidal ratio of 5% or lower (almost no effect)) | 3 (Herbicidal ratio of 40% or higher and lower than 70%) | 4 (Herbicidal ratio of 70% or higher and lower than 90%) | 0 (Herbicidal ratio of 5% or lower (almost no effect)) |  |  |  | 0 (Herbicidal ratio of 5% or lower (almost no effect)) | 0 (Herbicidal ratio of 5% or lower (almost no effect)) |  |  |  |  |  |  |
| CC(CC1CC(O)=C(c2c(C)cc(C)cc2C)C1=O)=NOCc1ccccn1 (stereo not drawn) [1-022] | 3 (Herbicidal ratio of 40% or higher and lower than 70%) | 5 (Herbicidal ratio of 90% or more (almost completely withered)) | 5 (Herbicidal ratio of 90% or more (almost completely withered)) | 5 (Herbicidal ratio of 90% or more (almost completely withered)) | 5 (Herbicidal ratio of 90% or more (almost completely withered)) | 5 (Herbicidal ratio of 90% or more (almost completely withered)) | 0 (Herbicidal ratio of 5% or lower (almost no effect)) |  |  |  |  |  |  |  |  |  |  |
| CON=C(C)CC1CC(OC(=O)COc2ccccc2)=C(c2c(C)cc(-c3ccc(Cl)cc3)cc2C)C1=O (mixture of isomers) [6-061] |  |  | 5 (Herbicidal ratio of 90% or more (almost completely withered)) |  |  | 1 (Herbicidal ratio of 5% or higher and lower than 20%) |  |  |  |  |  | 4 (Herbicidal ratio of 70% or higher and lower than 90%) | 5 (Herbicidal ratio of 90% or more (almost completely withered)) | 5 (Herbicidal ratio of 90% or more (almost completely withered)) | 5 (Herbicidal ratio of 90% or more (almost completely withered)) | 5 (Herbicidal ratio of 90% or more (almost completely withered)) | 3 (Herbicidal ratio of 40% or higher and lower than 70%) |
| C=CCON=C(C)CC1CC(O)=C(c2c(C)cc(C)cc2C)C1=O (stereo not drawn) [1-018] | 3 (Herbicidal ratio of 40% or higher and lower than 70%) | 5 (Herbicidal ratio of 90% or more (almost completely withered)) | 5 (Herbicidal ratio of 90% or more (almost completely withered)) | 5 (Herbicidal ratio of 90% or more (almost completely withered)) | 5 (Herbicidal ratio of 90% or more (almost completely withered)) | 5 (Herbicidal ratio of 90% or more (almost completely withered)) | 2 (Herbicidal ratio of 20% or higher and lower than 40%) |  |  |  |  |  |  |  |  |  |  |
| CC(=O)CC1CC(O)=C(c2c(C)cc(-c3ccccc3)cc2C)C1=O (stereo not drawn) [7-004] |  |  | 5 (Herbicidal ratio of 90% or more (almost completely withered)) |  |  | 3 (Herbicidal ratio of 40% or higher and lower than 70%) |  | 0 (Herbicidal ratio of 5% or lower (almost no effect)) | 0 (Herbicidal ratio of 5% or lower (almost no effect)) | 5 (Herbicidal ratio of 90% or more (almost completely withered)) | 2 (Herbicidal ratio of 20% or higher and lower than 40%) |  |  | 4 (Herbicidal ratio of 70% or higher and lower than 90%) | 5 (Herbicidal ratio of 90% or more (almost completely withered)) | 5 (Herbicidal ratio of 90% or more (almost completely withered)) |  |
| C#CCON=C(C)CC1CC(O)=C(c2c(C)cc(C)cc2C)C1=O (stereo not drawn) [1-019] | 3 (Herbicidal ratio of 40% or higher and lower than 70%) | 5 (Herbicidal ratio of 90% or more (almost completely withered)) | 5 (Herbicidal ratio of 90% or more (almost completely withered)) | 5 (Herbicidal ratio of 90% or more (almost completely withered)) | 5 (Herbicidal ratio of 90% or more (almost completely withered)) | 5 (Herbicidal ratio of 90% or more (almost completely withered)) | 3 (Herbicidal ratio of 40% or higher and lower than 70%) |  |  |  |  |  |  |  |  |  |  |
| CON=C(C)C(=NOC)C1CC(O)=C(c2c(C)cc(C)cc2C)C1=O (stereo not drawn) [8-003] |  | 0 (Herbicidal ratio of 5% or lower (almost no effect)) | 0 (Herbicidal ratio of 5% or lower (almost no effect)) | 0 (Herbicidal ratio of 5% or lower (almost no effect)) | 0 (Herbicidal ratio of 5% or lower (almost no effect)) | 0 (Herbicidal ratio of 5% or lower (almost no effect)) |  |  | 0 (Herbicidal ratio of 5% or lower (almost no effect)) | 0 (Herbicidal ratio of 5% or lower (almost no effect)) | 0 (Herbicidal ratio of 5% or lower (almost no effect)) |  |  |  |  |  |  |
| CON=C(C)CC1CC(O)=C(c2c(C)cc(OCc3ccncc3)cc2C)C1=O (mixture of isomers) [6-053] |  | 5 (Herbicidal ratio of 90% or more (almost completely withered)) | 4 (Herbicidal ratio of 70% or higher and lower than 90%) | 5 (Herbicidal ratio of 90% or more (almost completely withered)) | 3 (Herbicidal ratio of 40% or higher and lower than 70%) | 2 (Herbicidal ratio of 20% or higher and lower than 40%) |  |  |  |  |  | 0 (Herbicidal ratio of 5% or lower (almost no effect)) | 3 (Herbicidal ratio of 40% or higher and lower than 70%) |  |  |  | 0 (Herbicidal ratio of 5% or lower (almost no effect)) |
| CON=C(C)CC1CC(OC(=O)C(C)(C)Oc2ccccc2)=C(c2c(C)cc(C)cc2C)C1=O (stereo not drawn) [1-017] | 5 (Herbicidal ratio of 90% or more (almost completely withered)) | 5 (Herbicidal ratio of 90% or more (almost completely withered)) | 5 (Herbicidal ratio of 90% or more (almost completely withered)) | 5 (Herbicidal ratio of 90% or more (almost completely withered)) | 5 (Herbicidal ratio of 90% or more (almost completely withered)) | 5 (Herbicidal ratio of 90% or more (almost completely withered)) | 5 (Herbicidal ratio of 90% or more (almost completely withered)) |  |  |  |  |  |  |  |  |  |  |
